Measured values published in PubChem BioAssay AID270 (DTP/NCI, 2004).
Results filed as inconclusive are left out.

Tested on: BDF1 mice, s.c. Lewis lung carcinoma, T/C %
Experiment: NCI In Vivo Anticancer Drug Screen. Data for tumor model Lewis Lung Carcinoma (subcutaneous) in B6D2F1 (BDF1) mice
How it was run: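 First, mice carry a transplantable tumor. Next, groups receive either compound or vehicle. Finally, survival or tumor dimensions in the dosed animals are divided by the corresponding control figure.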

CCCCCCCCCCCC[N+](C)(C)Cc1ccccc1
T/C (endpoint: median survival time, dose: 0.12 mg/kg/injection, schedule: Q01DX009 (ip), vehicle: saline, higher = longer survival): 111 % of control | T/C (endpoint: median survival time, dose: 0.25 mg/kg/injection, schedule: Q01DX009 (ip), vehicle: saline, higher = longer survival): 94 % of control | T/C (endpoint: median survival time, dose: 1.0 mg/kg/injection, schedule: Q01DX009 (ip), vehicle: saline, higher = longer survival): 97 % of control | T/C (endpoint: median survival time, dose: 2.0 mg/kg/injection, schedule: Q01DX009 (ip), vehicle: saline, higher = longer survival): 97 % of control | T/C (endpoint: median survival time, dose: 4.0 mg/kg/injection, schedule: Q01DX009 (ip), vehicle: saline, higher = longer survival): 91 % of control | T/C (endpoint: median survival time, dose: 125.0 micrograms/kg/injection, schedule: Q01DX009 (ip), vehicle: saline, higher = longer survival): 107 % of control | T/C (endpoint: median survival time, dose: 250.0 micrograms/kg/injection, schedule: Q01DX009 (ip), vehicle: saline, higher = longer survival): 93 % of control | T/C (endpoint: median survival time, dose: 1000.0 micrograms/kg/injection, schedule: Q01DX009 (ip), vehicle: saline, higher = longer survival): 103 % of control | T/C (endpoint: median survival time, dose: 2000.0 micrograms/kg/injection, schedule: Q01DX009 (ip), vehicle: saline, higher = longer survival): 109 % of control | T/C (endpoint: median survival time, dose: 4000.0 micrograms/kg/injection, schedule: Q01DX009 (ip), vehicle: saline, higher = longer survival): 107 % of control | T/C (endpoint: median survival time, dose: 8000.0 micrograms/kg/injection, schedule: Q01DX009 (ip), vehicle: saline, higher = longer survival): 96 % of control

COC(COC(N)=O)C1=C(N2CC2)C(=O)C(C)=C(N2CC2)C1=O (stereo not drawn)
T/C (endpoint: median survival time, dose: 0.03 mg/kg/injection, schedule: Q01DX009 (ip), vehicle: Klucel (hydroxypropylcellulose) (HPC), higher = longer survival): 96 % of control | T/C (endpoint: median survival time, dose: 0.12 mg/kg/injection, schedule: Q01DX009 (ip), vehicle: Klucel (hydroxypropylcellulose) (HPC), higher = longer survival): 103 % of control | T/C (endpoint: median survival time, dose: 0.25 mg/kg/injection, schedule: Q01DX009 (ip), vehicle: Klucel (hydroxypropylcellulose) (HPC), higher = longer survival): 107 % of control | T/C (endpoint: median survival time, dose: 0.5 mg/kg/injection, schedule: Q01DX009 (ip), vehicle: Klucel (hydroxypropylcellulose) (HPC), higher = longer survival): 119 % of control | T/C (endpoint: median survival time, dose: 1.0 mg/kg/injection, schedule: Q01DX009 (ip), vehicle: Klucel (hydroxypropylcellulose) (HPC), higher = longer survival): 93 % of control

NC(=S)N/N=C/c1ncccc1O
T/C (endpoint: mean tumor weight, dose: 6.25 mg/kg/injection, schedule: Q01DX011 (ip), vehicle: saline, higher = larger tumour): 99 % of control | T/C (endpoint: mean tumor weight, dose: 12.5 mg/kg/injection, schedule: Q01DX011 (ip), vehicle: saline, higher = larger tumour): 86 % of control | T/C (endpoint: mean tumor weight, dose: 25.0 mg/kg/injection, schedule: Q01DX011 (ip), vehicle: saline, higher = larger tumour): 61 % of control | T/C (endpoint: mean tumor weight, dose: 50.0 mg/kg/injection, schedule: Q01DX011 (ip), vehicle: saline, higher = larger tumour): 31 % of control | T/C (endpoint: mean tumor weight, dose: 100.0 mg/kg/injection, schedule: Q01DX011 (ip), vehicle: saline, higher = larger tumour): 1 % of control

CC(=O)O[C@H]1C(=O)[C@@]2(C)[C@H]([C@H](OC(=O)c3ccccc3)[C@]3(O)C[C@H](OC(=O)[C@H](O)[C@@H](NC(=O)c4ccccc4)c4ccccc4)C(C)=C1C3(C)C)[C@]1(OC(C)=O)CO[C@@H]1C[C@@H]2O
T/C (endpoint: median survival time, dose: 4.0 mg/kg/injection, schedule: Q01DX009 (ip), vehicle: Klucel (hydroxypropylcellulose) (HPC), higher = longer survival): 112 % of control | T/C (endpoint: median survival time, dose: 6.0 mg/kg/injection, schedule: Q01DX009 (ip), vehicle: Klucel (hydroxypropylcellulose) (HPC), higher = longer survival): 109 % of control | T/C (endpoint: median survival time, dose: 11.0 mg/kg/injection, schedule: Q04DX003 (ip), vehicle: Klucel (hydroxypropylcellulose) (HPC), higher = longer survival): 94 % of control | T/C (endpoint: median survival time, dose: 13.0 mg/kg/injection, schedule: Q01DX001 (ip), vehicle: Klucel (hydroxypropylcellulose) (HPC), higher = longer survival): 107 % of control | T/C (endpoint: median survival time, dose: 16.0 mg/kg/injection, schedule: Q04DX003 (ip), vehicle: Klucel (hydroxypropylcellulose) (HPC), higher = longer survival): 109 % of control | T/C (endpoint: median survival time, dose: 20.0 mg/kg/injection, schedule: Q01DX001 (ip), vehicle: Klucel (hydroxypropylcellulose) (HPC), higher = longer survival): 99 % of control | T/C (endpoint: median survival time, dose: 30.0 mg/kg/injection, schedule: Q01DX001 (ip), vehicle: Klucel (hydroxypropylcellulose) (HPC), higher = longer survival): 101 % of control
